Assay results reported in patent US20180117148A1, “COMPOUNDS, PHARMACEUTICAL COMPOSITIONS AND METHODS OF TREATMENTS OF IMMUNE RELATED DISEASES AND DISORDERS” (priority 2016, published 2018).
Where “and” joins values, the source holds several entries; their conditions need not be identical. Equal entries are not always repeated.

Columns and labels:
[1] = tested on: inflammatory joint diseases like rheumatoid arthritis (RA) and psoriatic arthritis; settings: etanercept in inflammatory joint diseases (RA, psoriatic arthritis); background figure; cited from earlier work
[2] = tested on: patients with either rheumatoid or psoriatic arthritis; assay: Retrospective community-based study of etanercept with adjunctive neuroregulatory medications, 28-joint count (swollen and tender); type: in vivo, human
Experimental: A retrospective, community-based study assessed consecutive patients initiating biologic treatment of inflammatory arthritis. Improved outcomes were measured by a 28-joint count (swollen and tender). […] Consecutive patients with either rheumatoid or psoriatic arthritis initiated etanercept (25 mg/BIW). For partial response, neuroregulatory medications were added. Neuroregulatory medication options included bedtime dosing of either lorazepam or clonazepam, pramipexole, trazodone, other antidepressants and anticonvulsants.
Primary outcome: “≥70% reduction in 28-joint count (tender and swollen). Statistical analysis: LOCF and logistic regression (see data in FIGS. 1 and 2).

In the case of etanercept, the “patients achieving American College of Rheumatology 70% improvement (ACR70) response” value [1] is listed as “About 27%”, the “patients receiving disease activity score (DAS) remission response” value [1] is listed as 20.5% and the “patients in whom NSAIDs were discontinued” value ([2]; 14 of 29 on NSAIDs at baseline) is listed as 48%. The “patients in whom other DMARDs were discontinued” value ([2]; 22 of 28 on other DMARDs at baseline) was 79%, the “patients in whom methotrexate was discontinued” value ([2]; 24 of 32 on methotrexate at baseline (19.14 mg/wk)) was 75% and the “patients in whom prednisone was discontinued” value ([2]; 26 of 42 on prednisone at baseline (6.7 mg/d)) was 62%. The “patients achieving ≥70% reduction in joint count” value ([2]; by BOCF, 66 patients, etanercept 25 mg BIW, neuroregulatory medications added for partial response) was 74%, the “patients achieving ≥70% reduction in 28-joint count (tender and swollen), primary outcome” value ([2]; by LOCF, 52/66 patients, etanercept 25 mg BIW, neuroregulatory medications added for partial response (36/66), p<0.001) was 79% and the “mean 28-joint count after addition of etanercept” value ([2]; decreased from baseline 11.6±9.0, 66 patients, etanercept 25 mg BIW, neuroregulatory medications added for partial response) was 1.3 and 1.3±4.3.
